According to ChEMBL document CHEMBL1155927, “Synthesis and evaluation of 5'-modified 2'-deoxyadenosine analogues as anti-hepatitis C virus agents” (Bioorg Med Chem Lett, 2008):
pEC50: −log10 of the molar value.

Assays:
[1] = Cytotoxicity in human Huh7 cells by XTT assay; type: cell-based, Huh-7
Hepatitis C virus = assay: Antiviral activity against HCV assessed as inhibition of viral RNA replication in Huh7 cells; type: functional, organism-based, Hepacivirus hominis; conditions: Huh-7

Structure (SMILES)	CC50 [1]	pEC50 (Hepatitis C virus)
CON(C)C(=O)CC[C@H]1O[C@@H](n2cnc3c(Cl)ncnc32)C[C@@H]1O	> 200 µM	4.39
CON(C)C(=O)CC[C@H]1O[C@@H](n2cnc3c(N)ncnc32)C[C@@H]1O		< 3.70
COC(=O)CC[C@H]1O[C@@H](n2cnc3c(Cl)ncnc32)C[C@@H]1O	> 200 µM	4.48
O=C(CC[C@H]1O[C@@H](n2cnc3c(Cl)ncnc32)C[C@@H]1O)c1ccccc1	76.3 µM	4.82
COC(=O)CC[C@H]1O[C@@H](n2cnc3c(N)ncnc32)C[C@@H]1O		< 3.70
Nc1ncnc2c1ncn2[C@H]1C[C@H](O)[C@@H](CCC(=O)c2ccccc2)O1		< 3.70
